Results from patent US20040235855A1, “Phospholipase C inhibitors for use in treating inflammatory disorders” (priority 2003, published 2004).
pIC50: −log10 of the molar value.

Each molecule was assayed against T1, human PLC-β2 (Homo sapiens, UniProt Q00722) (assay: PLC assay using FlashPlates (96-well, immobilized [3H]PIP2 substrate)). Settings: purified recombinant human PLC-β2 or cytosolic human PLC-β2; hydrolysis of [3H]PIP2.
T1 construct: made in house; host or cells: Sf9 cells (Spodoptera frugiperda), recombinant baculovirus
T1 sequence (Q00722 whole entry): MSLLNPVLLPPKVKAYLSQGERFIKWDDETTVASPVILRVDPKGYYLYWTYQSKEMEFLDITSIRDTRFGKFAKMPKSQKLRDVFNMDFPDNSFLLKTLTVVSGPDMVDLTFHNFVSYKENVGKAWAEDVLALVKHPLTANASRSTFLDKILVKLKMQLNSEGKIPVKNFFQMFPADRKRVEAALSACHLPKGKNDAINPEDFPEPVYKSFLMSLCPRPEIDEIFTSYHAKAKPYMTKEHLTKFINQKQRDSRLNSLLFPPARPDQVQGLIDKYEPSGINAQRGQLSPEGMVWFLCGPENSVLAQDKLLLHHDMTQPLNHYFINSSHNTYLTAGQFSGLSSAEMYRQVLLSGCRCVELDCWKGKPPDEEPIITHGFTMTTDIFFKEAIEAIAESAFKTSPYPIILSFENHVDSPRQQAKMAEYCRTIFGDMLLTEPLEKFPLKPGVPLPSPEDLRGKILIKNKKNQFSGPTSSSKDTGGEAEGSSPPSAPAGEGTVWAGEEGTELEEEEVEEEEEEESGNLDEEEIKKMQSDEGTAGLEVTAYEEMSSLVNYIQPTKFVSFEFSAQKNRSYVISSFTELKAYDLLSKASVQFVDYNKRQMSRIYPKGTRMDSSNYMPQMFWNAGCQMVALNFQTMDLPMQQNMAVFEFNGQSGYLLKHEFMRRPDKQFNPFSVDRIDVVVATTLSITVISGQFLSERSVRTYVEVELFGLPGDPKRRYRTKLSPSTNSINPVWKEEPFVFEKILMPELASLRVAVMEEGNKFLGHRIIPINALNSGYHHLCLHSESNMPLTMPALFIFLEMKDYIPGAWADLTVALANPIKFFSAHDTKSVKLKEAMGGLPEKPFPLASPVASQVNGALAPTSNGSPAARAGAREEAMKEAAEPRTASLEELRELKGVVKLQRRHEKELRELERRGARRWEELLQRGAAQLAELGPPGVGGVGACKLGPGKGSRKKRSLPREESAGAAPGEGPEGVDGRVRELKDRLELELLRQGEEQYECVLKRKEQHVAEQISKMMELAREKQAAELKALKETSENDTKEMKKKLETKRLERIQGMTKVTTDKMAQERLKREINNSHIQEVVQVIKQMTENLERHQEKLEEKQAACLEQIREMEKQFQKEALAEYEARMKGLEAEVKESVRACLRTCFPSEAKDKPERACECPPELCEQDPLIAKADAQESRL
Type: biochemical
Source text: The hydrolysis of phosphatidylinositol-4,5-bisphosphate (PIP2) by a specific phospholipase C-β2 (PLC-β2) produces two intracellular messengers, diacylglycerol (DAG) and inositol 1,4,5-trisphosphate (IP3), which mediate the activation of protein kinase C and intracellular Ca^2+ release. A conventional organic solvent extraction method is widely used for PLC assays to isolate IP3 from the substrate PIP2. The conventional PLC-β2 assay, however is terminated by addition of acidified organic solvents and subsequent extraction and phase separation. […] Accordingly, a preferred method to test the compounds of the present invention, was developed utilizing a 96-well plate assay for PLC-β2 using immobilized radiolabeled substrate to quantitatively measure the reduction in the substrate level without a need for organic solvent extraction. The automated PLC-β2 assay described herein provides a convenient method for quantitative measurement of phospholipase C activities in a high throughput fashion. Ninety-six well Phospholipid FlashPlates were coated with 0.2 mL of 50 mM Tris/HCl (pH 7.4), 0.01% Ac-BSA and 50,000 cpm of […] (phosphatidylinositol-4,5-bisphosphate) at 4° C. for 72 h. The wells were aspirated and washed twice with PBS. The reactions were conducted directly in the wells in PLC reaction buffer containing 50 mM Tris/HCl (pH 7.2), 2.75 mM EDTA (pH 7.3), 80 mM KCl, 10 mM LiCl, 0.04% DOC and 2 mM CaCl2 in the absence or presence of the purified recombinant human PLC-β2 (prepared as described hereafter) or cytosolic human PLC-β2 from […]. Reduction of radioactivity was monitored by a Packard TopCount instrument (Packard Instrument Company, Conn., USA). […] The cells were grown in Grace's media supplemented with 10% (v/v) fetal bovine serum, 3.3 g/l yeastolate, 3.3 g/l lactalbumin hydrosylate, glutamine (6.4 mM final), 50 μg/ml gentamicin, and 50 μg/ml kanamycin. Suspension of Sf9 cells (1.0×10^6 cells/ml) were infected with 5 pfu/cell of recombinant baculovirus encoding PLC-β2 and incubated at 27° C. for 72 h. The cells were collected by centrifugation (500×g, 7 min, 4° C.) and disrupted by hypotonic lysis buffer containing 20 mM Tris/HCl, pH 7.4, 5 mM MgCl2, 2 mM EGTA, 200 μM PMSF, 200 μM benzamidine and 1 μM pepstatin A. The lysate was sonicated on ice and the nuclei and unbroken cells removed by centrifigation (500×g, 5 min, 4C.). The supernatant was recovered and clarified by centrifugation (34,000 rpm, 60 min, 4C.). The supernatant was used as a crude cytosolic fraction (Paterson, A., Boyer, J. L., Watts, V. J., Morris, A. J., Price, […]. (1995) Concentration of enzyme-dependent activation of PLC β1 and PLC β2 by Gα11 and βγ subunits. Cellular Signalling 7, 709-720). Crude cytosol prepared from Sf9 cells expressing PLC-β2 was purified initially by chromatography on a 10 ml column of Q-Sepharose FF, equilibrated in buffer A (25 mM HEPES, pH 7.2,2 mM DTT, 2 mM EDTA, 2 mM EGTA, 200 μM PMSF, 200 μM benzamidine, 1 μM pepstatin A containing 10 mM NaCl). The column was washed with 20 ml of equilibration buffer and eluted with a 200-ml gradient of 110-410 mM NaCl in buffer A. The fractions containing PLC activity were pooled and diluted with buffer A. The diluted enzyme was applied to a 4 ml column of heparin-SepharoseCL-6B equilibrated in buffer A and the column washed with 70 ml of buffer A. The column was eluted with 80 ml of gradient of 0-1.0 M NaCl in buffer A, the column eluate collected in 3 ml fractions. […]

Structure (SMILES) | pIC50
CN(C)CCNC(=O)c1ccc(N2CCN(C(c3ccccc3)c3ccccc3)CC2)c(NC(=O)Nc2ccccc2)c1 [Cpd 29, N-[2-(dimethylamino)ethyl]-4-[4-(diphenylmethyl)-1-piperazinyl]-3-[[(phenylamino)carbonyl]amino]-benzamide] | 5.48
CN(C)CCNC(=O)c1ccc(N2CCN(C(c3ccccc3)c3ccccc3)CC2)c(NC(=O)NC2CCCCC2)c1 [Cpd 30, 3-[[(cyclohexylamino)carbonyl]amino]-N-[2-(dimethylamino)ethyl]-4-[4-(diphenylmethyl)-1-piperazinyl]-benzamide] | 5.01
CN1CCCN(C(=O)c2ccc(N3CCN(C(c4ccccc4)c4ccccc4)CC3)c(NC(=O)NC3CCCCC3)c2)CC1 [Cpd 31, N-cyclohexyl-N′-[2-[4-(diphenylmethyl)-1-piperazinyl]-5-[(hexahydro-4-methyl-1H-1,4-diazepin-1-yl)carbonyl]phenyl]-urea] | 5.18
CC(C)C[C@H](NC(=O)c1ccc(N2CCN(C(c3ccccc3)c3ccccc3)CC2)c(NC(=O)Nc2ccccc2)c1)C(=O)O [Cpd 32, N-[4-[4-(diphenylmethyl)-1-piperazinyl]-3-[[(phenylamino)carbonyl]amino]benzoyl]-L-leucine] | 5.41
O=C(NCc1ccccc1)Nc1cc(C(=O)N2CCNCC2)ccc1N1CCN(C(c2ccccc2)c2ccccc2)CC1 [Cpd 39, N-[2-[4-(diphenylmethyl)-1-piperazinyl]-5-(1-piperazinylcarbonyl)phenyl]-N′-(phenylmethyl)urea] | 5.38
Cc1ccc(NC(=O)Nc2cc(C(=O)N3CCNCC3)ccc2N2CCN(C(c3ccccc3)c3ccccc3)CC2)c(C)c1 [Cpd 41, N-(2,4-dimethylphenyl)-N′-[2-[4-(diphenylmethyl)-1-piperazinyl]-5-(1-piperazinylcarbonyl)phenyl]-urea] | 5.80
Cc1cc(C)cc(NC(=O)Nc2cc(C(=O)N3CCNCC3)ccc2N2CCN(C(c3ccccc3)c3ccccc3)CC2)c1 [Cpd 42, N-(3,5-dimethylphenyl)-N′-[2-[4-(diphenylmethyl)-1-piperazinyl]-5-(1-piperazinylcarbonyl)phenyl]-urea] | 5.25
COc1ccc(NC(=O)Nc2cc(C(=O)N3CCNCC3)ccc2N2CCN(C(c3ccccc3)c3ccccc3)CC2)cc1 [Cpd 43, N-[2-[4-(diphenylmethyl)-1-piperazinyl]-5-(1-piperazinylcarbonyl)phenyl]-N′-(4-methoxyphenyl)urea] | 5.24
O=C(Nc1ccccc1)Nc1cc(C(=O)N2CCNCC2)ccc1N1CCN(C2c3ccccc3-c3ccccc32)CC1 [Cpd 44, N-[2-[4-(9H-fluoren-9-yl)-1-piperazinyl]-5-(1-piperazinylcarbonyl)phenyl]-N′-phenylurea] | 5.64
O=C(Nc1cc(C(=O)N2CCNCC2)ccc1N1CCN(C(c2ccccc2)c2ccc(Cl)cc2)CC1)NC1CCCCC1 (stereo not shown) [Cpd 45, N-[2-[4-[(4-chlorophenyl)phenylmethyl]-1-piperazinyl]-5-(1-piperazinylcarbonyl)phenyl]-N′-cyclohexyl-urea] | 5.66
O=C(Nc1ccccc1)Nc1cc(C(=O)N2CCNCC2)ccc1N1CCN(C(c2ccc(F)cc2)c2ccc(F)cc2)CC1 [Cpd 46, N-[2-[4-[bis(4-fluorophenyl)methyl]-1-piperazinyl]-5-(1-piperazinylcarbonyl)phenyl]-N′-phenylurea] | 5.77
O=C(Nc1cc(C(=O)N2CCNCC2)ccc1N1CCN(C(c2ccc(F)cc2)c2ccc(F)cc2)CC1)NC1CCCCC1 [Cpd 47, N-[2-[4-[bis(4-fluorophenyl)methyl]-1-piperazinyl]-5-(1-piperazinylcarbonyl)phenyl]-N′-cyclohexylurea] | 5.38
CC(c1ccccc1)N1CCN(c2ccc(C(=O)N3CCNCC3)cc2NC(=O)Nc2ccccc2)CC1 (stereo not shown) [Cpd 48, N-phenyl-N′-[2-[4-(1-phenylethyl)-1-piperazinyl]-5-(1-piperazinylcarbonyl)phenyl]-urea] | < 4.60
COc1ccccc1N1CCN(c2ccc(C(=O)N3CCNCC3)cc2NC(=O)Nc2ccccc2)CC1 [Cpd 49, N-[2-[4-(2-methoxyphenyl)-1-piperazinyl]-5-(1-piperazinylcarbonyl)phenyl]-N′-phenylurea] | < 4.60
O=C(Nc1ccccc1)Nc1cc(C(=O)N2CCNCC2)ccc1N1CCN(Cc2ccccc2)CC1 [Cpd 50, N-phenyl-N′-[2-[4-(phenylmethyl)-1-piperazinyl]-5-(1-piperazinylcarbonyl)phenyl]-urea] | < 4.60
O=C(Nc1ccccc1)Nc1cc(C(=O)N2CCNCC2)ccc1N1CCN(C2CCCCC2)CC1 [Cpd 51, N-[2-(4-cyclohexyl-1-piperazinyl)-5-(1-piperazinylcarbonyl)phenyl]-N′-phenylurea] | < 4.60
O=C(Nc1cc(C(=O)N2CCNCC2)ccc1N1CCN(Cc2ccccc2)CC1)NC1CCCCC1 [Cpd 52, N-cyclohexyl-N′-[2-[4-(phenylmethyl)-1-piperazinyl]-5-(1-piperazinylcarbonyl)phenyl]-urea] | < 4.60
CC(c1ccccc1)N1CCN(c2ccc(C(=O)N3CCNCC3)cc2NC(=O)NC2CCCCC2)CC1 (stereo not shown) [Cpd 53, N-cyclohexyl-N′-[2-[4-(1-phenylethyl)-1-piperazinyl]-5-(1-piperazinylcarbonyl)phenyl]-urea] | < 4.60
O=C(Nc1cc(C(=O)N2CCNCC2)ccc1N1CCN(C2CCCCC2)CC1)NC1CCCCC1 [Cpd 54, N-cyclohexyl-N′-[2-(4-cyclohexyl-1-piperazinyl)-5-(1-piperazinylcarbonyl)phenyl]-urea] | < 4.60
COc1ccccc1N1CCN(c2ccc(C(=O)N3CCNCC3)cc2NC(=O)NC2CCCCC2)CC1 [Cpd 55, N-cyclohexyl-N′-[2-[4-(2-methoxyphenyl)-1-piperazinyl]-5-(1-piperazinylcarbonyl)phenyl]-urea] | < 4.60
CCCCNC(=O)Nc1cc(C(=O)N2CCNCC2)ccc1N1CCN(C(c2ccccc2)c2ccccc2)CC1 [Cpd 56, N-butyl-N′-[2-[4-(diphenylmethyl)-1-piperazinyl]-5-(1-piperazinylcarbonyl)phenyl]-urea] | < 4.60
O=C(Nc1ccccc1F)Nc1cc(C(=O)N2CCNCC2)ccc1N1CCN(C(c2ccccc2)c2ccccc2)CC1 [Cpd 57, N-[2-[4-(diphenylmethyl)-1-piperazinyl]-5-(1-piperazinylcarbonyl)phenyl]-N′-(2-fluorophenyl)urea] | 5.60
CN(C)c1ccc(NC(=O)Nc2cc(C(=O)N3CCNCC3)ccc2N2CCN(C(c3ccccc3)c3ccccc3)CC2)cc1 [Cpd 58, N-[4-(dimethylamino)phenyl]-N′-[2-[4-(diphenylmethyl)-1-piperazinyl]-5-(1-piperazinylcarbonyl)phenyl]-urea] | 5.11
COc1ccccc1NC(=O)Nc1cc(C(=O)N2CCNCC2)ccc1N1CCN(C(c2ccccc2)c2ccccc2)CC1 [Cpd 59, N-[2-[4-(diphenylmethyl)-1-piperazinyl]-5-(1-piperazinylcarbonyl)phenyl]-N′-(2-methoxyphenyl)-urea] | 5.27
O=C(Nc1ccccc1)Nc1cc(C(=O)N2CCNCC2)ccc1N1CCN(C(c2ccccc2)c2ccc(Cl)cc2)CC1 (stereo not shown) [Cpd 60, N-[2-[4-[(4-chlorophenyl)phenylmethyl]-1-piperazinyl]-5-(1-piperazinylcarbonyl)phenyl]-N′-phenyl-urea] | 6.02
